Source: patent publication US20250090699A1, “FAP TARGETING CYCLIC PEPTIDES AND CONJUGATES THEREOF” (Novartis AG, priority 2023, published 2025)
pIC50, pKd: −log10 of the molar value. Counter-ions that a name gives are not always drawn. Starred links: 1 amine or outer side, 2 acyl side, 3 side chain; linkers in the order of their positions; H or OH if unused. Non-standard residues stand in square brackets, D forms with d. Residues, ends and D or L forms follow the SMILES beside them. Groups on a side chain read outwards from the residue. *: point of attachment. Piperazinyl(4-CH2COOH) = O=C(O)CN1CCN(*)CC1; AEF = NCCOc1ccc(C[C@H](N)C(=O)O)cc1; mTyr = N[C@@H](Cc1cccc(O)c1)C(=O)O; NMeF = CN[C@@H](Cc1ccccc1)C(=O)O; Ahp(2) = CCCCC[C@H](N)C(=O)O; NMeK = CN[C@@H](CCCCN)C(=O)O; Orn = NCCC[C@H](N)C(=O)O; Dab = NCC[C@H](N)C(=O)O; CO = O=C([*:1])[*:2]

Columns and labels:
[1] = biological target: T1, mouse FAP (Mus musculus, UniProt P97321); assay: Surface plasmon resonance (SPR) for peptide affinity, mouse FAP; format: binding
T1 construct: biotinylated His, Avi tag, mouse FAP (26-761, FAP-M82Q5); His; Avi tag (biotinylated); purchased AcroBiosystems FAP-M82Q5
T1 sequence (P97321 26-761): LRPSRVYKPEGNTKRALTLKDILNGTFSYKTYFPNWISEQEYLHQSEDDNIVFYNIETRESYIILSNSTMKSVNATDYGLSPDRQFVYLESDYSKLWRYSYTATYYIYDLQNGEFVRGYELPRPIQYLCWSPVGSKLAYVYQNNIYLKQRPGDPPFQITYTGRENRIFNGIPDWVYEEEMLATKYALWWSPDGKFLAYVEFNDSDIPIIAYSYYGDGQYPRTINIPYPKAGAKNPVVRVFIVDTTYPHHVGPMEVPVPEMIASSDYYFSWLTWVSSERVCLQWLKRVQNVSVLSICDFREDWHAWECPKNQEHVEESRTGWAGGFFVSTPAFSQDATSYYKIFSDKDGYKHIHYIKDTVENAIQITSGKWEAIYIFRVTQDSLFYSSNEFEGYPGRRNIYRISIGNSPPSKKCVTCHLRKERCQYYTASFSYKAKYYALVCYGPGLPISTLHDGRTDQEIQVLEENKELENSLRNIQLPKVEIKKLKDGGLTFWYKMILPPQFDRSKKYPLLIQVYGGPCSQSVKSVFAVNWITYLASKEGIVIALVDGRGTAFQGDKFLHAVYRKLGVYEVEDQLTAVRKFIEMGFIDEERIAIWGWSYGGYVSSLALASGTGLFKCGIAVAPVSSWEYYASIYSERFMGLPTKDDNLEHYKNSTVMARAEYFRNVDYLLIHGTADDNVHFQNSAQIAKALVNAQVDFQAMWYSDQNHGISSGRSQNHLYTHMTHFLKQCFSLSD
Method: Peptide affinities (KD) were determined by SPR using a Biacore™ 8K device (Cytiva) towards the following proteins: biotinylated His, Avi tag, human FAP (26-760, FAP-H82Q6), biotinylated His, Avi tag, mouse FAP (26-761, FAP-M82Q5), His tag, human DPP4 (34-766, DP4-H82E3), all purchased from AcroBiosystems and His tag, mouse DPP4 (29-760, 954-SE) from R&D Systems. The FAP proteins and their homologous were diluted to a concentration of 2 μg/mL into acetate buffer pH 5.5, then immobilized onto a CM5 sensorchip (Cytiva, BR-1005-30) to reach a response around 2000 R U. The running buffer HBS-EP+pH 7.6 (20× from Teknova CAT. No: H8022) contained 10 mM HEPES pH 7.6, 150 mM NaCl, 3 mM EDTA, 0.05% Tween20 and 2% DMSO. Experiments were carried out at 25° C. using a flow rate of 30 μL/min. Compounds were tested in single cycle kinetic mode at 8 different concentrations. Curve fitting was performed using the Biacore™ 8K evaluation software. The sensorgrams were fitted by applying a 1:1 binding model to calculate kinetic rate constants and equilibrium dissociation constants (KD).
For this assay, the setup had the same conditions (flow rate, running buffer, peptide dilution) as described above for the CM5 method. The oligo CAP reagent obtained in the CAPture Kit (Ref. 28920234) was 1/5 diluted into running buffer and used with a contact time of 300 s at a flow rate of 2 μL/min. The human and mouse FAP constructs described above were used (from AcroBiosystems or produced in house). The FAP proteins were diluted to a concentration of 2 μg/mL into acetate pH 5.5, 0.05% Tween20 and used with a contact time of 600 s at a flow rate of 10 μL/min. The peptides were tested with an association time of 280 s followed by a dissociation time of 3000 s at a flow rate of 30 μL/min. The regeneration was done using the regeneration solution (8 M guanidine-HCl, 1 M NaOH) as obtained with a contact time of 270 s at a flow rate of 10 μL/min. […] The compounds marked with an asterisk were tested against human and mouse DDP4.

[2] = biological target: T2, human FAP (Homo sapiens, UniProt Q12884); assay: Enzymatic FAP competition assay (Z-Gly-Pro-AMC fluorescence), human FAP; format: biochemical; settings: read-out: h. FAP, Enz., IC50
T2 construct: the biotinylated His, Avi tag, human FAP (26-760, FAP-H82Q6); His; Avi tag (biotinylated); purchased AcroBiosystems FAP-H82Q6
T2 sequence (Q12884 26-760): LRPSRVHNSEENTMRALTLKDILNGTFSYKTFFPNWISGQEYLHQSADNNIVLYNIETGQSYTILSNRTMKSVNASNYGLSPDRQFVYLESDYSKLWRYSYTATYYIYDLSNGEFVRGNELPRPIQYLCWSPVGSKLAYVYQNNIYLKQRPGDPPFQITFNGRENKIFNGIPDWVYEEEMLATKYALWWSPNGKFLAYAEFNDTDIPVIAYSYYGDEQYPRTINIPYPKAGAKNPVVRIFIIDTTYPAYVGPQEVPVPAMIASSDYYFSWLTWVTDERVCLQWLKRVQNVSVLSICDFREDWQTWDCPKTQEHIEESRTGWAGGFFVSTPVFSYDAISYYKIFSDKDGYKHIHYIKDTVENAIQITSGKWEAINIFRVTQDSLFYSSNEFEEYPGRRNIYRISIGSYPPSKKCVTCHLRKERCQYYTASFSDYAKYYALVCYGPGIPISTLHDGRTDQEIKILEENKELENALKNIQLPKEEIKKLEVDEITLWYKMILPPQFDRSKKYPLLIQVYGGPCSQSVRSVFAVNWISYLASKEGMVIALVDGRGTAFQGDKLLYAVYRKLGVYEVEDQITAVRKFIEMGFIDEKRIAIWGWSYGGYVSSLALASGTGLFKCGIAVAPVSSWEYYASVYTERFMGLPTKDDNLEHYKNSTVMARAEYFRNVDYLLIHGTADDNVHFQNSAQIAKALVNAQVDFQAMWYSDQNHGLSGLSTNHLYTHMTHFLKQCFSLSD
Method: (§1) Peptide potencies (IC50) to inhibit the FAP enzymatic activity were determined using a fluorescence-based assay towards the biotinylated His, Avi tag, human FAP (26-760, FAP-H82Q6) and the biotinylated His, Avi tag, mouse FAP (26-761, FAP-M82Q5). Standard assay conditions consisted of 20 μL total volume in white 384-well plates (Greiner, Ref. 784075), in 50 mM phosphate buffer pH 7.5 containing 150 mM NaCl, 0.05% Tween20 and 1% final DMSO. Tested peptides at 14 different concentrations up to 1 μM were added to 0.01 nM human or mouse FAP. The peptides were incubated for 24 hours together with the protein before adding the substrate 50 μM Z-Gly-Pro-AMC (I-1145 from Bachem). Samples were then incubated at 22-24° C. for 4 h before reading the fluorescence at excitation wavelength of 380 nm and emission wavelength of 460 nm using the Tecan Infinite® M1000 PRO. The high control (100% activity) was not containing any peptide, and an internal potent peptide was added at 10 μM concentration for the low control (100% inhibition). IC50 values were calculated by curve fitting using an in-house developed software (Novartis Helios software application) using the method described by Fomenko et al., 2006 (regression algorithms for nonlinear dose-response curve fitting). Following normalization of activity values for the wells to % inhibition (% inhibition=[(high control-sample)/(high control-low control)]x 100). IC50 fitting was carried out from the duplicated points.

[3] = biological target: T1, mouse FAP; assay: Enzymatic FAP competition assay (Z-Gly-Pro-AMC fluorescence), mouse FAP; format: biochemical; settings: read-out: m. FAP, Enz., IC50
Method: as §1

Row | Compound | pKd [1] | pIC50 [2] | pIC50 [3]
1 | CCCCC[C@@H]1NC(=O)[C@H](Cc2ccc(O)cc2)NC(=O)[C@H](Cc2ccccc2)N(C)C(=O)CNC(=O)CNC(=O)[C@H]2CCCN2C(=O)[C@H](CC(=O)O)NC(=O)[C@H](CCCCNC(=O)N2CCN(CC(=O)O)CC2)N(C)C(=O)CNC(=O)[C@H](Cc2c[nH]c3ccccc23)NC1=O [Example A3, 2-((9S,12S,15S,18S,24S,27S,32aR)-18-((1H-indol-3-yl)methyl)-9-benzyl-24-(4-(4-(carboxymethyl)piperazine-1-carboxamido)butyl)-12-(4-hydroxybenzyl)-8,23-dimethyl-1,4,7,10,13,16,19,22,25,28-decaoxo-15-pentyldotriacontahydropyrrolo[1,2-a][1,4,7,10,13,16,19,22,25,28]decaazacyclotriacontin-27-yl)acetic acid TFA salt] (cyclo([Ahp(2)]WG[NMeK]([CO-Piperazinyl(4-CH2COOH)])D[dP]GG[NMeF]Y)) | 8.72 | 9.12 | 9.02
2 | CCCCC[C@@H]1NC(=O)[C@H](Cc2ccc(O)cc2)NC(=O)[C@H](Cc2ccccc2)N(C)C(=O)CNC(=O)CNC(=O)[C@H]2CCCN2C(=O)[C@H](CC(=O)O)NC(=O)[C@H](CCCNC(=O)N2CCN(CC(=O)O)CC2)NC(=O)CNC(=O)[C@H](Cc2c[nH]c3ccccc23)NC1=O [Example A4, Gly-Gly-NMePhe-Tyr-Ahp-Trp-Gly-Orn(COPipzaa)-Asp-D-Pro, TFA salt] (cyclo([Ahp(2)]WG[Orn]([CO-Piperazinyl(4-CH2COOH)])D[dP]GG[NMeF]Y)) | 9.33 | 9.69 | 9.24
3 | CCCCC[C@@H]1NC(=O)[C@H](Cc2ccc(O)cc2)NC(=O)[C@H](Cc2ccccc2)N(C)C(=O)CNC(=O)CNC(=O)[C@H]2CCCN2C(=O)[C@H](CC(=O)O)NC(=O)[C@H](CCNC(=O)N2CCN(CC(=O)O)CC2)NC(=O)CNC(=O)[C@H](Cc2c[nH]c3ccccc23)NC1=O [Example A5, Gly-Gly-NMePhe-Tyr-Ahp-Trp-Gly-Dab(COPipzaa)-Asp-D-Pro] (cyclo([Ahp(2)]WG[Dab]([CO-Piperazinyl(4-CH2COOH)])D[dP]GG[NMeF]Y)) | 9.21 | 10.15 | 9.30
4 | CCCCC[C@@H]1NC(=O)[C@H](Cc2ccc(OCCN)cc2)NC(=O)[C@H](Cc2ccccc2)N(C)C(=O)CNC(=O)CNC(=O)[C@H]2CCCN2C(=O)[C@H](CC(=O)O)NC(=O)[C@H](CCCCNC(=O)N2CCN(CC(=O)O)CC2)NC(=O)CNC(=O)[C@H](Cc2c[nH]c3ccccc23)NC1=O [Example A6, 2-((9S,12S,15S,18S,24S,27S,32aR)-18-((1H-indol-3-yl)methyl)-12-(4-(2-aminoethoxy)benzyl)-9-benzyl-24-(4-(4-(carboxymethyl)piperazine-1-carboxamido)butyl)-8-methyl-1,4,7,10,13,16,19,22,25,28-decaoxo-15-pentyldotriacontahydropyrrolo[1,2-a][1,4,7,10,13,16,19,22,25,28]decaazacyclotriacontin-27-yl)acetic acid TFA salt] (cyclo([AEF][Ahp(2)]WGK([CO-Piperazinyl(4-CH2COOH)])D[dP]GG[NMeF])) | 9.73 | 10.15 | 9.75
5 | CCCCC[C@@H]1NC(=O)[C@H](Cc2ccc(O)cc2)NC(=O)[C@H](Cc2ccccc2)N(C)C(=O)CNC(=O)CNC(=O)[C@H]2CCCN2C(=O)[C@H](CC(=O)O)NC(=O)[C@H](Cc2cccc(O)c2)NC(=O)CNC(=O)[C@H](Cc2c[nH]c3ccccc23)NC1=O [Example A14, Gly-Gly-NMePhe-Tyr-Ahp-Trp-Gly-F(3OH)-Asp-D-Pro] (cyclo([Ahp(2)]WG[mTyr]D[dP]GG[NMeF]Y)) | 9.62 | 10.04 | 9.43
6 | CCCCC[C@@H]1NC(=O)[C@H](Cc2ccc(O)cc2)NC(=O)[C@H](Cc2ccccc2)N(C)C(=O)CNC(=O)[C@H](CC(=O)O)NC(=O)[C@H]2CCCN2C(=O)[C@H](CC(=O)O)NC(=O)[C@H](Cc2ccc(O)cc2)NC(=O)CNC(=O)[C@H](Cc2c[nH]c3ccccc23)NC1=O [Example A18, Asp-Gly-NMePhe-Tyr-Ahp-Trp-Gly-Tyr-Asp-D-Pro] (cyclo([Ahp(2)]WGYD[dP]DG[NMeF]Y)) | 9.65 | 9.57 | 9.15
7 | CCCCC[C@@H]1NC(=O)[C@H](Cc2ccc(O)cc2)NC(=O)[C@H](Cc2ccccc2)N(C)C(=O)CNC(=O)[C@H](CO)NC(=O)[C@H]2CCCN2C(=O)[C@H](CC(=O)O)NC(=O)[C@H](Cc2ccc(O)cc2)NC(=O)CNC(=O)[C@H](Cc2c[nH]c3ccccc23)NC1=O [Example A19, Ser-Gly-NMePhe-Tyr-Ahp-Trp-Gly-Tyr-Asp-D-Pro] (cyclo([Ahp(2)]WGYD[dP]SG[NMeF]Y)) | 9.59 | 9.84 | 9.18
8 | CCCCC[C@@H]1NC(=O)[C@H](Cc2ccc(O)cc2)NC(=O)[C@H](Cc2ccccc2)NC(=O)[C@H](CCC(=O)O)NC(=O)[C@H](CCCCN)NC(=O)[C@H]2CCCN2C(=O)[C@H](CC(=O)O)NC(=O)[C@H](Cc2ccc(O)cc2)NC(=O)CNC(=O)[C@H](Cc2c[nH]c3ccccc23)NC1=O [Example A20, Lys-Glu-Phe-Tyr-Ahp-Trp-Gly-Tyr-Asp-D-Pro] (cyclo([Ahp(2)]WGYD[dP]KEFY)) | 8.06 | 8.59 | 8.06
